Test results reported in PubChem BioAssay (NCI).
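Grown in 96-well plates, cells were treated for 48 hours with each compound at five concentrations. Insufficient inhibition: endpoint recorded as highest concentration tested. The concentration for full growth arrest is given as TGI.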

Assays:
Test in all cases: DTP human tumour cell line panel, 48 h
[1] = test system: OVCAR-5 ovarian
[2] = test system: SF-268 CNS
[3] = test system: M14 melanoma
[4] = test system: MDA-N
[5] = test system: CCRF-CEM leukemia
[6] = test system: HCT-15 colon
[7] = test system: OVCAR-4 ovarian
[8] = test system: OVCAR-3 ovarian
[9] = test system: SK-MEL-28 melanoma
[10] = test system: UO-31 renal
[11] = test system: HT29 colon
[12] = test system: SF-295 CNS
[13] = test system: 786-0 renal
[14] = test system: EKVX NSCLC
[15] = test system: NCI-H226 lung
[16] = test system: MALME-3M melanoma
[17] = test system: MCF7 breast
[18] = test system: K-562 leukemia
[19] = test system: SK-MEL-2 melanoma

## NCC[Se][Se]CCN
[1]
  TGI: 17.6 µM
[2]
  TGI: 32.5 µM
[3]
  TGI: 13.3 µM
[4]
  TGI: 23.4 µM
[5]
  TGI: 45.6 µM
[6]
  TGI: 22.1 µM
[7]
  TGI: 32.1 µM
[8]
  TGI: 28.3 µM
[9]
  TGI: 29.7 µM
[10]
  TGI: 13.3 µM
[11]
  TGI: 26.9 µM
[12]
  TGI: 11.5 µM
[13]
  TGI: 29.4 µM
[14]
  TGI: 18.1 µM
[15]
  TGI: 29.1 µM
[16]
  TGI: 25.2 µM
[17]
  TGI: 33.1 µM
[18]
  TGI: 64 µM
[19]
  TGI: 23.2 µM

## CC(C)(N)CO[C@H]1C[C@H]2CC[C@@]1(C)C2(C)C
[1]
  TGI: 41.3 µM
[2]
  TGI: > 100 µM
[3]
  TGI: 31.4 µM
[4]
  TGI: 30.2 µM
[5]
  TGI: 83.6 µM
[6]
  TGI: 47 µM
[7]
  TGI: 74.5 µM
[8]
  TGI: > 100 µM
[9]
  TGI: 27.4 µM
[10]
  TGI: 37.7 µM
[11]
  TGI: 34 µM
[12]
  TGI: 39.3 µM
[13]
  TGI: 30.2 µM
[14]
  TGI: > 100 µM
[15]
  TGI: 49.8 µM
[16]
  TGI: 33.6 µM
[17]
  TGI: 37.1 µM
[18]
  TGI: 43.3 µM
[19]
  TGI: 35.3 µM

## CO[C@H]1O[C@@H]2CO[C@@H](c3ccccc3)O[C@H]2[C@@H]2CC=CCC[C@]12O
[1]
  TGI: > 100 µM
[2]
  TGI: 51 µM
[3]
  TGI: > 100 µM
[4]
  TGI: > 100 µM
[5]
  TGI: > 100 µM
[6]
  TGI: > 100 µM
[7]
  TGI: > 100 µM
[8]
  TGI: > 100 µM
[9]
  TGI: > 100 µM
[10]
  TGI: > 100 µM
[11]
  TGI: > 100 µM
[12]
  TGI: > 100 µM
[13]
  TGI: > 100 µM
[14]
  TGI: > 100 µM
[15]
  TGI: > 100 µM
[16]
  TGI: 29.3 µM
[17]
  TGI: > 100 µM
[18]
  TGI: > 100 µM
[19]
  TGI: > 100 µM

## COC(=O)CCC1(C)C2CCC1(C)/C(=N/O)C2 (stereo not drawn)
[1]
  TGI: > 100 µM
[2]
  TGI: > 100 µM
[3]
  TGI: > 100 µM
[4]
  TGI: > 100 µM
[5]
  TGI: > 100 µM
[6]
  TGI: > 100 µM
[7]
  TGI: > 100 µM
[8]
  TGI: > 100 µM
[9]
  TGI: > 100 µM
[10]
  TGI: > 100 µM
[11]
  TGI: > 100 µM
[12]
  TGI: > 100 µM
[13]
  TGI: > 100 µM
[14]
  TGI: > 100 µM
[15]
  TGI: > 100 µM
[16]
  TGI: > 100 µM
[17]
  TGI: > 100 µM
[18]
  TGI: > 100 µM
[19]
  TGI: > 100 µM

## CCN(CC)c1ccc2c(c1)OC(=O)C(c1nnc(-c3ccc([N+](=O)[O-])cc3)o1)C2 (stereo not drawn)
[1]
  TGI: > 100 µM
[2]
  TGI: > 100 µM
[3]
  TGI: > 100 µM
[4]
  TGI: > 100 µM
[5]
  TGI: > 100 µM
[6]
  TGI: > 100 µM
[7]
  TGI: > 100 µM
[8]
  TGI: > 100 µM
[9]
  TGI: > 100 µM
[10]
  TGI: > 100 µM
[11]
  TGI: > 100 µM
[12]
  TGI: > 100 µM
[13]
  TGI: > 100 µM
[14]
  TGI: > 100 µM
[15]
  TGI: > 100 µM
[16]
  TGI: > 100 µM
[17]
  TGI: > 100 µM
[18]
  TGI: > 100 µM
[19]
  TGI: > 100 µM

## C[n+]1noc(/N=N\[O-])c1-c1cc(-c2c(/N=N\[O-])on[n+]2C)cc(-c2c(/N=N/[O-])on[n+]2C)c1
[1]
  TGI: > 100 µM
[2]
  TGI: > 100 µM
[3]
  TGI: > 100 µM
[4]
  TGI: > 100 µM
[5]
  TGI: > 100 µM
[6]
  TGI: > 100 µM
[7]
  TGI: > 100 µM
[8]
  TGI: > 100 µM
[9]
  TGI: > 100 µM
[10]
  TGI: > 100 µM
[11]
  TGI: > 100 µM
[12]
  TGI: > 100 µM
[13]
  TGI: > 100 µM
[14]
  TGI: > 100 µM
[15]
  TGI: > 100 µM
[16]
  TGI: > 100 µM
[17]
  TGI: > 100 µM
[18]
  TGI: > 100 µM
[19]
  TGI: > 100 µM

## CN(C)CCNc1ccc2ncnc3c2c1C(=O)c1ccccc1-3
[1]
  TGI: 3.42 µM
[2]
  TGI: 4.48 µM
[3]
  TGI: 1.42 µM
[4]
  TGI: 4.11 µM
[5]
  TGI: 2.89 µM
[6]
  TGI: 13.5 µM
[7]
  TGI: 4.27 µM
[8]
  TGI: 10.1 µM
[9]
  TGI: 10.9 µM
[10]
  TGI: 12.9 µM
[11]
  TGI: 2.98 µM
[12]
  TGI: 2.88 µM
[13]
  TGI: 5.47 µM
[14]
  TGI: 5.67 µM
[15]
  TGI: 3.74 µM
[16]
  TGI: 2.38 µM
[17]
  TGI: 2.57 µM
[18]
  TGI: 6.75 µM
[19]
  TGI: 10.8 µM
